The subject of data set [1] is Wnt signal. As to the kind of experiment: Detection of Wnt signal (TOPglow luciferase reporter, LiCl-stimulated). Format: cell-based. Conditions: Homo sapiens; HEK293 clone carrying pNeo-TOP reporter; LiCl stimulation; luciferase luminescence; read-out: Test Example 1 IC50 (concentration required for inhibiting the Wnt signal activity by 50%). An outline of the steps:
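Stable HEK293 clone carrying a TOPglow TCF/Wnt-responsive luciferase reporter, stimulated with 80 mM LiCl in the diluted sample medium alongside compound; luminescence read with Bright-Glo 6 h after addition. IC50 derived from activity scaled between LiCl-only wells (100%) and wells lacking both LiCl and sample (0%).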
(In a reporter assay the amount or activity of a reporter protein is the signal.)

Data set [2] can be described thus: Evaluation of metabolic stability. Format: in vitro ADME, human. Particulars: 0.2 mg/mL HLM, 0.1 μM test substance, 15 minutes at 37° C., with vs without NADPH production. An outline of the steps: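 Pooled human liver microsomes (0.2 mg/mL) in 0.1 M potassium phosphate pH 7.4 with EDTA, MgCl2 and an NADPH-generating system (NADP+, glucose-6-phosphate, G6PDH). Residual ratio by LC-MS/MS, comparing with versus without NADPH generation.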

Data set [3] in a line: Evaluation of solubility (DMSO stock into PBS, HPLC-UV). Format: physicochemical. Conditions: Dulbecco's phosphate-buffered saline pH 7, room temperature, about 15 minutes shaking, values greater than 200 μM regarded as 200 μM, read-out: Test Example 3 solubility. An outline of the steps: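 Kinetic solubility: 20 mM DMSO stock spiked into Dulbecco's PBS pH 7, shaken about 15 min at room temperature, then suction-filtered; filtrate quantified by HPLC-UV against a 200 μM DMSO standard. Values above 200 μM are capped at 200 μM.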

Data set [4] is described as follows: PAMPA test (parallel artificial membrane permeability assay). Format: in vitro ADME. Conditions: phosphate buffer pH 6.8, about 200 μM, about 5 hours, room temperature, read-out: Test Example 4 membrane permeation coefficient Pe. An outline of the steps: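 Compounds at about 200 μM in pH 6.8 phosphate buffer with about 1% DMSO on the donor side. Transport across a lipid-precoated PVDF membrane with shaking at 350 rpm, room temperature, about 5 h. Donor and acceptor concentrations measured by HPLC-UV; Pe (cm/s) calculated from these.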
(In general: In PAMPA a lipid-coated filter parts donor from acceptor wells.)

Setting [5] is: aqueous buffer, kinetic from dmso stock.

SMILES strings stand for the structures. pIC50: −log10 of the molar value. ≈ marks a conversion by molar mass, not a printed value. Where two headings read alike, the source gives them in different places.

As to `C=CCN1CC(=O)N2[C@@H](Cc3ccc(O)cc3)C(=O)N(Cc3ccc(F)c(N4CC(N5CCN(C)CC5)C4)n3)C[C@@H]2N1C(=O)NCc1ccccc1` [Example 8, (6S,9aS)-N-Benzyl-8-((5-fluoro-6-(3-(4-methylpiperazin-1-yl)azetidin-1-yl)pyridin-2-yl)methyl)-6-((4-hydroxyphenyl)methyl)-4,7-dioxo-2-(prop-2-en-1-yl)-octahydro-1H-pyrazino[2,1-c][1,2,4]triazine-1-carboxamide], in data set [1], the pIC50 was 6.70. For the same compound, in data set [2], the “Test Example 2 residual ratio of the test substance” value (from here on “Test Example 2 residual ratio”) was 40%. For the same compound, the solubility (commonly the concentration that dissolves in the medium under given conditions) in data set [3] (setting [5]) worked out at 195 µM (≈ 139 µg/mL). For the same compound, in data set [4], the Papp was 2.3 ×10⁻⁶ cm/s.

In the case of `C=CCN1CC(=O)N2[C@@H](Cc3ccc(O)cc3F)C(=O)N(Cc3cccc(N4CC(N5CCN(CC)[C@H](C)C5)C4)n3)C[C@@H]2N1C(=O)NCc1ccccc1` [Example 21, (6S,9aS)-N-Benzyl-8-((6-(3-((3R)-4-ethyl-3-methylpiperazin-1-yl)azetidin-1-yl)pyridin-2-yl)methyl)-6-((2-fluoro-4-hydroxyphenyl)methyl)-4,7-dioxo-2-(prop-2-en-1-yl)-octahydro-1H-pyrazino[2,1-c][1,2,4]triazine-1-carboxamide], the pIC50 in data set [1] is 7.20. For the same compound, in data set [2], the “Test Example 2 residual ratio” value stood at 23%. Moreover, the solubility in data set [3] is listed as 200 µM (≈ 148 µg/mL). The Papp in data set [4] was 1.47 ×10⁻⁶ cm/s.

As for `C=CCN1CC(=O)N2[C@@H](Cc3ccc(O)cc3)C(=O)N(Cc3cccc(N4CC(N5CCN(CC)[C@@H](C)C5)C4)n3)C[C@@H]2N1C(=O)NCc1ccccc1` [Example 18, (6S,9aS)-N-Benzyl-8-((6-(3-((3S)-4-ethyl-3-methylpiperazin-1-yl)azetidin-1-yl)pyridin-2-yl)methyl)-6-((4-hydroxyphenyl)methyl)-4,7-dioxo-2-(prop-2-en-1-yl)-octahydro-1H-pyrazino[2,1-c][1,2,4]triazine-1-carboxamide], the pIC50 in data set [1] is 6.49. The “Test Example 2 residual ratio” value in data set [2] is listed as 37%. Besides, the solubility in data set [3] worked out at 200 µM (≈ 144 µg/mL). Besides, in data set [4], the Papp stood at 1.13 ×10⁻⁶ cm/s.

Consider `C=CCN1CC(=O)N2[C@@H](Cc3ccc(O)cc3)C(=O)N(Cc3ccc(F)c(N4CC(N5CCN(CC)CC5)C4)n3)C[C@@H]2N1C(=O)NCc1ccccc1` [Example 7, (6S,9aS)-N-Benzyl-8-((6-(3-(4-ethylpiperazin-1-yl)azetidin-1-yl)-5-fluoropyridin-2-yl)methyl)-6-((4-hydroxyphenyl)methyl)-4,7-dioxo-2-(prop-2-en-1-yl)-octahydro-1H-pyrazino[2,1-c][1,2,4]triazine-1-carboxamide], for which the pIC50 in data set [1] was 7.02. Further, the “Test Example 2 residual ratio” value in data set [2] was 29%. Besides, in data set [3] (setting [5]), the solubility worked out at 189 µM (≈ 137 µg/mL). Moreover, in data set [4], the Papp turned out to be 2.77 ×10⁻⁶ cm/s.

Take `C[C@H]1C2N(C(=O)CN(C)N2C(=O)NCc2ccccc2)[C@@H](Cc2ccc(O)cc2)C(=O)N1Cc1cccc2cccnc12` (stereo partly drawn) [Comparative Example 2, (6S,9S)-N-Benzyl-6-(4-hydroxybenzyl)-2,9-dimethyl-4,7-dioxo-8-(quinolin-8-ylmethyl)octahydro-1H-pyrazino[2,1-c][1,2,4]triazine-1-carboxamide, reference compound]: the pIC50 in data set [1] is 6.48. For the same compound, in data set [2], the “Test Example 2 residual ratio” value is 0.6%. Also, the solubility in data set [3] (setting [5]) turned out to be 122 µM (≈ 70.6 µg/mL). The Papp in data set [4] is 0.85 ×10⁻⁶ cm/s.

Take `C=CCN1CC(=O)N2[C@@H](Cc3ccc(O)cc3F)C(=O)N(Cc3cccc(N4CC(N5CCN(C)C[C@@H]5C)C4)n3)C[C@@H]2N1C(=O)NCc1ccccc1` [Example 15, (6S,9aS)-N-Benzyl-8-((6-(3-((2S)-2,4-dimethylpiperazin-1-yl)azetidin-1-yl)pyridin-2-yl)methyl)-6-((2-fluoro-4-hydroxyphenyl)methyl)-4,7-dioxo-2-(prop-2-en-1-yl)-octahydro-1H-pyrazino[2,1-c][1,2,4]triazine-1-carboxamide]: in data set [1], the pIC50 was 7.12. In addition, the “Test Example 2 residual ratio” value in data set [2] turned out to be 45%. Also, the solubility in data set [3] (setting [5]) is 195 µM (≈ 142 µg/mL). Moreover, the Papp in data set [4] is 2.38 ×10⁻⁶ cm/s.
